Our source for the TGI values is PubChem BioAssay (NCI).

SMILES strings stand for the structures.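 Step 1: Grow cells in 96-well plates. Step 2: Expose to compound for 48 hours at 5 concentrations. Step 3: Interpolate endpoints linearly; if unreached, use highest concentration. The concentration for full growth arrest is given as TGI.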

Test systems include HT29 colon; A498 renal; COLO 205 colon; CAKI-1 renal; K-562 leukemia; MALME-3M melanoma.
Holding throughout (test): NCI anticancer screen, dose series, 48 h

Take `O=C(O)[C@H](Cc1ccccc1)NCCN1CCC[C@H]1C(=O)O`: the TGI with HT29 colon, in the experiment with A498 renal, in the experiment on COLO 205 colon, in the experiment on CAKI-1 renal, in the experiment with K-562 leukemia and in the experiment with MALME-3M melanoma was above 100 µM throughout.

For the compound `COc1cc2c(cc1OC)C(=O)C1(C2)[C@H](c2ccccc2)C2C(=O)c3cc(OC)c(OC)cc3C2[C@H]1c1ccccc1` (stereo partly specified), the TGI with HT29 colon was above 100 µM; in the experiment with A498 renal, above 100 µM; in the experiment on COLO 205 colon it was above 100 µM; in the experiment on CAKI-1 renal it was 0.648 µM; in the experiment on K-562 leukemia it was above 100 µM; in the experiment with MALME-3M melanoma, above 100 µM.

In the case of `CN1C(=O)C(O)CC1c1ccccc1C(F)(F)F` (stereo unspecified), the TGI in the experiment with HT29 colon, with A498 renal, with COLO 205 colon, with CAKI-1 renal and in the experiment on MALME-3M melanoma was above 100 µM throughout.

As to `COC(=O)C(COC(=O)/C=C/c1ccc(OC(C)=O)c(OC(C)=O)c1)NC(=O)/C=C/c1ccc(OC(C)=O)c(OC(C)=O)c1` (stereo unspecified), the TGI in the experiment with HT29 colon was 48 µM; in the experiment with A498 renal, above 100 µM; with COLO 205 colon it was 43.4 µM; in the experiment on CAKI-1 renal it was 59.4 µM; with K-562 leukemia, above 100 µM; with MALME-3M melanoma, 32 µM.

Turning to `COC(=O)C1Cc2ccc3c(c2C1=O)CCCC3` (stereo unspecified), the TGI in the experiment on HT29 colon, in the experiment on A498 renal, with COLO 205 colon, with CAKI-1 renal, with K-562 leukemia and in the experiment with MALME-3M melanoma was above 100 µM each time.

Consider `CC(C)Oc1cccc(N2C(=NCCc3c[nH]c4ccccc34)Nc3ccncc3S2(=O)=O)c1`, for which the TGI in the experiment with HT29 colon was 20.3 µM; in the experiment with A498 renal it was above 100 µM; in the experiment with COLO 205 colon, 4.08 µM; with CAKI-1 renal it was above 100 µM; with K-562 leukemia, above 100 µM; with MALME-3M melanoma, above 100 µM.

For `CCN(CCCl)c1cc(CN(C)C)cc(NC(=O)C23CCC(C(=O)Nc4cc(CN(C)C)cc(N(CC)CCCl)c4)(CC2)CC3)c1`, the TGI was found to be 1.95 µM in the experiment with HT29 colon; 20.2 µM in the experiment with A498 renal; 2.81 µM in the experiment with COLO 205 colon; 23.2 µM in the experiment on CAKI-1 renal; 4.73 µM in the experiment on K-562 leukemia; 3.21 µM with MALME-3M melanoma.

On to `O=S1(=O)OCCOS(=O)(=O)C1Cc1cccc2ccccc12`, for which the TGI with HT29 colon was 71.4 µM; in the experiment with A498 renal, 28.9 µM; in the experiment with COLO 205 colon, 29.2 µM; in the experiment with CAKI-1 renal it was above 100 µM; in the experiment on K-562 leukemia, 38.2 µM; with MALME-3M melanoma it was 31.2 µM.

For the compound `CCNC12CCC(C1)C(C)(C)C2=O` (stereo unspecified), the TGI with A498 renal, in the experiment on COLO 205 colon, with CAKI-1 renal and with K-562 leukemia was above 100 µM in each case.

Turning to `CCOC(OCC)N1C(=O)C2(C(OCC)OCC)CC3C(OC(=O)N3N)c3cccc1c32` (stereo unspecified), the TGI in the experiment on HT29 colon, in the experiment with A498 renal, with COLO 205 colon, in the experiment with CAKI-1 renal and in the experiment on MALME-3M melanoma was above 100 µM each time.

Take `O=C(NNC(=S)NCc1ccccc1)c1csc(NC(=S)NC2CCCCC2)n1`: the TGI in the experiment on HT29 colon is 12.1 µM; in the experiment with A498 renal, above 100 µM; in the experiment with COLO 205 colon it was 49.6 µM; with CAKI-1 renal, above 100 µM; with MALME-3M melanoma it was above 100 µM.

With `CC(=O)OCC1OC(O[C@@H]2C[C@H]3C(C)(C)[C@@H](OC(C)=O)CC[C@]3(C)[C@H]3CC[C@]45C[C@]4(CC[C@H]5[C@@H](C)C[C@@H](O)[C@H](O)C(C)(C)F)[C@@]32C)C(O)C(O)C1O` (stereo partly specified), the TGI in the experiment with HT29 colon was 3.05 µM; in the experiment with A498 renal, 76.5 µM; in the experiment on COLO 205 colon, 3.38 µM; in the experiment with CAKI-1 renal it was above 100 µM; in the experiment with MALME-3M melanoma, 3.48 µM.

Turning to `CCOC(=O)c1cc(Br)c(-c2cc(C)no2)[nH]1`, the TGI is above 100 µM in the experiment on HT29 colon, 75.6 µM in the experiment on A498 renal, 34.8 µM in the experiment on COLO 205 colon and 61.3 µM with MALME-3M melanoma.

On to `C=C1C(=O)OC2C3C(=C)[C@@H](OC(C)=O)CC3C(C)=CC(OC(=O)C(C)(OC(C)=O)C(C)OC(C)=O)[C@@H]12` (stereo partly specified), for which the TGI in the experiment with HT29 colon is 27.5 µM; with COLO 205 colon, 28.2 µM; with CAKI-1 renal, 23.2 µM; in the experiment on K-562 leukemia, 32.6 µM; in the experiment with MALME-3M melanoma, 26.5 µM.

Consider `O=c1c(-c2ccccc2F)coc2cc(F)ccc12`, for which the TGI with HT29 colon, in the experiment with A498 renal, in the experiment with COLO 205 colon and in the experiment with CAKI-1 renal was above 100 µM in each case.

As for `COc1cc2c(cc1OC)CC1c3cc(OC)c(OC)cc3CCN1CC2` (stereo unspecified), the TGI in the experiment with HT29 colon, in the experiment with A498 renal, with COLO 205 colon, with CAKI-1 renal and in the experiment with K-562 leukemia was above 100 µM throughout.

Consider `COc1ccc(N=NC(=Nc2ccc(Cl)cc2)c2ccc(N(CCC#N)CCC#N)cc2)cc1`, for which the TGI with HT29 colon, in the experiment with A498 renal, in the experiment with COLO 205 colon, with CAKI-1 renal and in the experiment on K-562 leukemia was above 100 µM in each case.

`COC(=O)C1=C(C)NC(C)=C(C(=O)OC)C1c1ccc(N=O)cc1`: the TGI in the experiment on HT29 colon was 40.8 µM; in the experiment with COLO 205 colon, 24.5 µM; with CAKI-1 renal, 27.9 µM; with K-562 leukemia, above 100 µM; in the experiment with MALME-3M melanoma it was 24.4 µM.

Consider `CCOc1ccccc1-c1nc2c(s1)C(=O)c1ccccc1C2=O`, for which the TGI was determined as 29.4 µM in the experiment with A498 renal; 58.9 µM in the experiment on COLO 205 colon; 26.7 µM in the experiment on CAKI-1 renal; 32.4 µM with K-562 leukemia; 19.8 µM in the experiment with MALME-3M melanoma.

On to `CC(=O)OC[C@@]12Cc3ccc(C)c(O)c3[C@]1(C)[C@@H](OC(C)=O)[C@]1(O)[C@H]([C@@H](OC(=O)c3ccccc3)[C@@H](C)[C@H]1OC(C)=O)[C@H]2OC(C)=O`, for which the TGI in the experiment on A498 renal, in the experiment with COLO 205 colon, with CAKI-1 renal and in the experiment with K-562 leukemia was above 50 µM in each case.

`Nc1ccc(C23CC4CC(C2)CC(c2ccc(N)cc2)(C4)C3)cc1`: the TGI in the experiment on A498 renal was 47.4 µM; in the experiment with COLO 205 colon it was 52.5 µM; with CAKI-1 renal, above 100 µM; in the experiment with K-562 leukemia, 36.8 µM.

As for `O=C1NC(N2CCCCC2)=N/C1=C\c1ccc(Cl)cc1`, the TGI in the experiment on HT29 colon was 35.7 µM; with COLO 205 colon, above 100 µM; with CAKI-1 renal it was above 100 µM; in the experiment on MALME-3M melanoma, above 100 µM.
